What was measured:
speedwell = assay: Test D postemergence; format: in vivo, Veronica persica; settings: scale 0 to 100
Summary of the method: (§1)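 Both application timings used one formulation, a non-phytotoxic solvent mixture with surfactant. Preemergence pots held silt loam, and postemergence plants grew in peat moss/vermiculite medium to the 1- to 4-leaf stage. All plants were held under controlled conditions for 14 to 21 d before visual scoring relative to controls.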

galium = assay: Test A postemergence; format: in vivo, Galium aparine; settings: 0 to 100 scale (0 no effect, 100 complete control), approx. 10 d
Summary of the method: (§2)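 Visual injury score, 0 (no effect) to 100 (complete control), taken about 10 d after treatment against untreated greenhouse controls. Chemicals formulated in non-phytotoxic solvent plus surfactant; preemergence by directed soil spray onto sown loam/sand, postemergence onto one- to two-leaf plants.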

Russian thistle = assay: Test D preemergence; format: in vivo, Salsola kali; settings: for Plant response rating: Russian Thistle: scale 0 to 100
From the text: Seeds of plant species selected from bluegrass (annual bluegrass, Poa annua), blackgrass (Alopecurus myosuroides), canarygrass (Phalaris minor), chickweed (common chickweed, Stellaria media), galium (catchweed bedstraw, Galium aparine), bromegrass, down (downy bromegrass, Bromus tectorum), Russian thistle (Salsola kali), field poppy (Papaver rhoeas), field violet (Viola arvensis), foxtail, green (green foxtail, Setaria viridis), deadnettle (henbit deadnettle, Lamium amplexicaule), ryegrass, Ital. (Italian ryegrass, Lolium multiflorum), kochia (Kochia scoparia), lambsquarters (Chenopodium album), oilseed rape (Brassica napus), pigweed (Amaranthus retroflexus), chamomile (scentless chamomile, Matricaria inodora), speedwell (bird's-eye speedwell, Veronica persica), barley, spring (spring barley, Hordeum vulgare), wheat, spring (spring wheat, Triticum aestivum), buckwheat, wild (wild buckwheat, Polygonum convolvulus), wild mustard (Sinapis arvensis), oat, wild (wild oat, Avena fatua), radish, wild (wild radish, Raphanus raphanistrum), […]), barley, winter (winter barley, Hordeum vulgare), and wheat, winter (winter wheat, Triticum aestivum) were planted into a silt loam soil and treated preemergence with test chemicals formulated in a non-phytotoxic solvent mixture which included a surfactant. At the same time, these species were planted in pots containing Sunshine Redi-Earth® planting medium comprising spaghnum peat moss, vermiculite, starter nutrients and dolomitic limestone and treated with postemergence applications of the test chemicals formulated in the same manner. Plants ranged in height from 2 to 18 cm (1- to 4-leaf stage). Treated plants and controls were maintained in a controlled growth environment for 14 to 21 d after which time all species were compared to controls and visually evaluated. […] A dash (-) response means no test result.

field violet = assay: Test D postemergence; format: in vivo, Viola arvensis; settings: scale 0 to 100
Summary of the method: as §1

oat, wild [1] = assay: Test D postemergence; format: in vivo, Avena fatua; settings: scale 0 to 100
Summary of the method: as §1

lambsquarters [2] = assay: Test D postemergence; format: in vivo, Chenopodium album; settings: scale 0 to 100
Summary of the method: as §1

chickweed = assay: Test D preemergence; format: in vivo, Stellaria media; settings: for Plant response rating: Chickweed: scale 0 to 100
Summary of the method: as §1

kochia = assay: Test A postemergence; format: in vivo, Kochia scoparia; settings: 0 to 100 scale (0 no effect, 100 complete control), approx. 10 d
Summary of the method: as §2

oat, wild [3] = assay: Test D preemergence; format: in vivo, Avena fatua; settings: for Plant response rating: Oat, Wild: scale 0 to 100
Summary of the method: as §1

deadnettle = assay: Test D preemergence; format: in vivo, Lamium amplexicaule; settings: for Plant response rating: Deadnettle: scale 0 to 100
Summary of the method: as §1

wheat, spring = assay: Test D postemergence; format: in vivo, Triticum aestivum; settings: scale 0 to 100
Summary of the method: as §1

wheat, winter = assay: Test D postemergence; format: in vivo, Triticum aestivum; settings: scale 0 to 100
Summary of the method: as §1

buckwheat, wild = assay: Test D postemergence; format: in vivo, Polygonum convolvulus; settings: scale 0 to 100
Summary of the method: as §1

oilseed rape = assay: Test D postemergence; format: in vivo, Brassica napus; settings: scale 0 to 100
Summary of the method: as §1

radish, wild = assay: Test D postemergence; format: in vivo, Raphanus raphanistrum; settings: scale 0 to 100
Summary of the method: as §1

wild mustard = assay: Test D postemergence; format: in vivo, Sinapis arvensis; settings: scale 0 to 100
Summary of the method: as §1

lambsquarters [4] = assay: Test D preemergence; format: in vivo, Chenopodium album; settings: for Plant response rating: Lambsquarters: scale 0 to 100
Summary of the method: as §1

foxtail, green = assay: Test D preemergence; format: in vivo, Setaria viridis; settings: for Plant response rating: Foxtail, Green: scale 0 to 100
Summary of the method: as §1

[5] = 16 g ai/ha, 0 is no effect, 100 is complete control

Fc1ccc(-c2nc(OCC(F)(F)F)n(Cc3ccnc(C(F)(F)F)c3)n2)cc1 [Compound 30]
98: Plant response rating: Field Violet (field violet; 31 g ai/ha) | Plant response rating: Radish, Wild (radish, wild; 62 g ai/ha)
95: Plant response rating: Field Violet (field violet; 62 g ai/ha) | Plant response rating: Lambsquarters (lambsquarters [2]; 62 g ai/ha) | Plant response rating: Lambsquarters (lambsquarters [2]; 125 g ai/ha) | Plant response rating: Deadnettle (deadnettle; 31 g ai/ha) | Plant response rating: Radish, Wild (radish, wild; 16 g ai/ha) | Plant response rating: Radish, Wild (radish, wild; 31 g ai/ha) | Plant response rating: Lambsquarters (lambsquarters [4]; 62 g ai/ha) | Plant response rating: Lambsquarters (lambsquarters [4]; 125 g ai/ha)
100: Plant response rating: Speedwell (speedwell; 16 g ai/ha) | Plant response rating: Speedwell (speedwell; 31 g ai/ha) | Plant response rating: Speedwell (speedwell; 62 g ai/ha) | Plant response rating: Speedwell (speedwell; 125 g ai/ha) | Plant response rating: Field Violet (field violet; 125 g ai/ha) | Plant response rating: Chickweed (chickweed; 62 g ai/ha) | Plant response rating: Chickweed (chickweed; 125 g ai/ha) | Plant response rating: Deadnettle (deadnettle; 62 g ai/ha) | Plant response rating: Deadnettle (deadnettle; 125 g ai/ha) | Plant response rating: Oilseed Rape (oilseed rape; 62 g ai/ha) | Plant response rating: Oilseed Rape (oilseed rape; 125 g ai/ha) | Plant response rating: Radish, Wild (radish, wild; 125 g ai/ha) | Plant response rating: Mustard, Wild (wild mustard; 31 g ai/ha) | Plant response rating: Mustard, Wild (wild mustard; 62 g ai/ha) | Plant response rating: Mustard, Wild (wild mustard; 125 g ai/ha) | Plant response rating: Foxtail, Green (foxtail, green; 62 g ai/ha) | Plant response rating: Foxtail, Green (foxtail, green; 125 g ai/ha)
25: Plant response rating: Wheat, Spring (wheat, spring; 16 g ai/ha) | Plant response rating: Wheat, Winter (wheat, winter; 62 g ai/ha)
40: Plant response rating: Oat, Wild (oat, wild [1]; 16 g ai/ha) | Plant response rating: Oat, Wild (oat, wild [1]; 31 g ai/ha)
30: Plant response rating: Wheat, Spring (wheat, spring; 31 g ai/ha)
45: Plant response rating (0 to 100), Oat, Wild (oat, wild [3]; [5]) | Plant response rating: Wheat, Spring (wheat, spring; 125 g ai/ha)
90: Plant response rating, Galium (galium; 500 g ai/ha) | Plant response rating: Russian Thistle (Russian thistle; 62 g ai/ha) | Plant response rating: Russian Thistle (Russian thistle; 125 g ai/ha) | Plant response rating: Lambsquarters (lambsquarters [2]; 31 g ai/ha) | Plant response rating, Kochia (kochia; 125 g ai/ha) | Plant response rating, Kochia (kochia; 500 g ai/ha) | Plant response rating: Oilseed Rape (oilseed rape; 16 g ai/ha) | Plant response rating: Mustard, Wild (wild mustard; 16 g ai/ha)
85: Plant response rating: Lambsquarters (lambsquarters [2]; 16 g ai/ha) | Plant response rating (0 to 100), Deadnettle (deadnettle; [5]) | Plant response rating: Buckwheat, Wild (buckwheat, wild; 62 g ai/ha) | Plant response rating: Buckwheat, Wild (buckwheat, wild; 125 g ai/ha) | Plant response rating (0 to 100), Lambsquarters (lambsquarters [4]; [5]) | Plant response rating (0 to 100), Foxtail, Green (foxtail, green; [5])
60: Plant response rating, Galium (galium; 125 g ai/ha)
65: Plant response rating: Oat, Wild (oat, wild [1]; 62 g ai/ha)
35: Plant response rating: Wheat, Spring (wheat, spring; 62 g ai/ha) | Plant response rating: Wheat, Winter (wheat, winter; 125 g ai/ha)
70: Plant response rating (0 to 100), Chickweed (chickweed; [5]) | Plant response rating: Oat, Wild (oat, wild [3]; 62 g ai/ha) | Plant response rating: Buckwheat, Wild (buckwheat, wild; 16 g ai/ha) | Plant response rating: Buckwheat, Wild (buckwheat, wild; 31 g ai/ha)
80: Plant response rating (0 to 100), Russian Thistle (Russian thistle; [5]) | Plant response rating: Chickweed (chickweed; 31 g ai/ha) | Plant response rating: Oat, Wild (oat, wild [3]; 125 g ai/ha)
15: Plant response rating: Wheat, Winter (wheat, winter; 16 g ai/ha) | Plant response rating: Wheat, Winter (wheat, winter; 31 g ai/ha)
75: Plant response rating: Field Violet (field violet; 16 g ai/ha) | Plant response rating: Oat, Wild (oat, wild [1]; 125 g ai/ha) | Plant response rating: Oilseed Rape (oilseed rape; 31 g ai/ha)

From patent US10681909B2, “Herbicidal triazoles” (FMC Corporation, priority 2014, dated 2020)
